Data from the supplement of paper PMC10307832.

Experiments:
Experiment in all cases: relative viability (nuclei count vs DMSO), 5 days (fraction); higher = more cells survive
[1] = compound: CN(NC(=O)CC(=O)NN(C)C(=S)c1ccccc1)C(=S)c1ccccc1 [Elesclomol] + CC(=O)Nc1cccc(-n2c(=O)n(C3CC3)c(=O)c3c(Nc4ccc(I)cc4F)n(C)c(=O)c(C)c32)c1 [Trametinib] (partner 0.02 µM)
Procedure, shortened: (§1)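 Relative viability divides the nuclei count in treated wells by that in vehicle wells. Lung cancer cell lines were seeded in 1536-well plates, dosed by pin tool the next day, and fixed and stained after 5 days in one step with final 0.05% Triton X-100, 1% formaldehyde and 1 ug/ml Hoechst. Dosing was a single drug or a fixed anchor-drug dose plus five library-drug doses (not always all listed) in √10 steps, and values are medians of duplicate plates imaged at 4×.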

[2] = compound: CN(NC(=O)CC(=O)NN(C)C(=S)c1ccccc1)C(=S)c1ccccc1 [Elesclomol] + CS(=O)(=O)N1CCN(Cc2cc3nc(-c4cccc5[nH]ncc45)nc(N4CCOCC4)c3s2)CC1 [Pictilisib] (partner 1 µM)
Procedure, shortened: as §1

[3] = compound: CN(NC(=O)CC(=O)NN(C)C(=S)c1ccccc1)C(=S)c1ccccc1 [Elesclomol] + C[C@@H](Oc1cc(-c2cnn(C3CCNCC3)c2)cnc1N)c1c(Cl)ccc(F)c1Cl [Crizotinib] (partner 1 µM)
Procedure, shortened: as §1

[4] = compound: CN(NC(=O)CC(=O)NN(C)C(=S)c1ccccc1)C(=S)c1ccccc1 [Elesclomol] + NC(=O)Nc1cc(-c2cccc(F)c2)sc1C(=O)N[C@H]1CCCNC1 [AZD7762] (partner 0.2 µM)
Procedure, shortened: as §1

[5] = compound: CN(NC(=O)CC(=O)NN(C)C(=S)c1ccccc1)C(=S)c1ccccc1 [Elesclomol] + O=C(c1cc(Cc2n[nH]c(=O)c3ccccc23)ccc1F)N1CCN(C(=O)C2CC2)CC1 [Olaparib] (partner 8 µM)
Procedure, shortened: as §1

Row | Cell Line | relative viability ([1]; first compound 0.003162 µM) | relative viability ([1]; first compound 0.01 µM) | relative viability ([1]; first compound 0.03162 µM) | relative viability ([1]; first compound 0.1 µM) | relative viability ([2]; first compound 0.003162 µM) | relative viability ([2]; first compound 0.03162 µM) | relative viability ([2]; first compound 0.1 µM) | relative viability ([3]; first compound 0.003162 µM) | relative viability ([3]; first compound 0.03162 µM) | relative viability ([3]; first compound 0.1 µM) | relative viability ([4]; first compound 0.003162 µM) | relative viability ([4]; first compound 0.01 µM) | relative viability ([4]; first compound 0.03162 µM) | relative viability ([4]; first compound 0.1 µM) | relative viability ([5]; first compound 0.003162 µM) | relative viability ([5]; first compound 0.01 µM) | relative viability ([5]; first compound 0.03162 µM) | relative viability ([5]; first compound 0.1 µM) | relative viability ([2]; first compound 0.01 µM) | relative viability ([3]; first compound 0.01 µM)
1 | EPLC-272H | 0.264 | 0.111 | 0.09 | 0.119 | 0.349 | 0.341 | 0.11 | 1.03 | 0.837 | 0.135 | 0.255 | 0.159 | 0.11 | 0.104 | 0.592 | 0.157 | 0.132 | 0.178 | – | –
2 | HCC-366 | 0.383 | 0.311 | 0.114 | 0.0129 | 0.135 | 0.211 | 0.0502 | 0.566 | 0.112 | 0.0109 | 0.312 | 0.255 | 0.393 | 0.0195 | 0.369 | 0.31 | 0.108 | 0.0162 | 0.123 | 0.616
3 | HCC-44 | 1.14 | 1.09 | 1.08 | 1.05 | 0.592 | 0.554 | 0.322 | 0.767 | 0.808 | 0.457 | 1 | 0.942 | 0.996 | 1 | 0.965 | 0.914 | 0.976 | 1 | 0.578 | 0.73
4 | NCI-H23 | 0.426 | 0.404 | 0.208 | 0.117 | 0.536 | 0.366 | 0.147 | 0.56 | 0.49 | 0.116 | 0.29 | 0.164 | 0.176 | 0.108 | 0.3 | 0.267 | 0.187 | 0.0908 | – | –
5 | NCI-H727 | 0.412 | 0.362 | 0.394 | 0.376 | 0.331 | 0.158 | 0.0437 | 0.681 | 0.096 | 0.0428 | 0.569 | 0.683 | 0.572 | 0.346 | 0.587 | 0.7 | 0.712 | 0.416 | 0.226 | 0.453
6 | NCI-H1355 | 0.434 | 0.408 | 0.356 | 0.159 | 0.549 | 0.257 | 0.178 | 1.02 | 0.701 | 0.203 | 0.793 | 0.7 | 0.478 | 0.179 | 0.724 | 0.648 | 0.347 | 0.209 | 0.191 | 1.02
7 | NCI-H1944 | 0.48 | 0.456 | 0.352 | 0.266 | 0.381 | 0.318 | 0.328 | 1.07 | 1 | 1.01 | 0.469 | 0.567 | 0.408 | 0.206 | 0.421 | 0.412 | 0.358 | 0.209 | 0.29 | 1.06
8 | NCI-H2087 | 0.204 | 0.149 | 0.153 | 0.0863 | 0.879 | 0.491 | 0.495 | 0.814 | 0.495 | 0.457 | 1.23 | 0.767 | 0.589 | 0.279 | 0.55 | 0.264 | 0.334 | 0.082 | 0.559 | 0.531
9 | NCI-H838 | 0.56 | 0.494 | 0.518 | 0.216 | 0.465 | 0.439 | 0.357 | 0.833 | 0.691 | 0.414 | 0.989 | 0.87 | 0.735 | 0.613 | 0.765 | 0.721 | 0.488 | 0.215 | 0.413 | 0.745
10 | LC-2-ad | 0.888 | 0.811 | 0.272 | 0.197 | 0.419 | 0.102 | 0.0937 | 0.423 | 0.194 | 0.238 | 0.874 | 0.819 | 0.231 | 0.136 | 0.722 | 0.622 | 0.277 | 0.197 | 0.195 | 0.251
11 | HCC-78 | 0.7 | 0.549 | 0.674 | 0.722 | 0.252 | 0.229 | 0.217 | 0.356 | 0.326 | 0.336 | 0.672 | 0.696 | 0.513 | 0.642 | 0.735 | 0.574 | 0.641 | 0.945 | 0.2 | 0.325
12 | LOU-NH91 | 0.814 | 0.733 | 0.769 | 0.643 | 0.447 | 0.45 | 0.424 | 0.735 | 0.616 | 0.57 | 0.769 | 0.726 | 0.563 | 0.471 | 0.898 | 0.825 | 0.829 | 0.606 | 0.511 | 0.706
13 | NCI-H1734 | 0.674 | 0.511 | 0.151 | 0.0873 | 0.511 | 0.248 | 0.117 | 0.66 | 0.382 | 0.0924 | 0.518 | 0.45 | 0.145 | 0.0601 | 0.586 | 0.519 | 0.165 | 0.0747 | 0.328 | 0.586
14 | NCI-H596 | 0.798 | 0.865 | 0.368 | 0.237 | 0.374 | 0.346 | 0.218 | 0.92 | 0.95 | 0.184 | 1.19 | 0.943 | 0.927 | 0.252 | 0.672 | 0.608 | 0.503 | 0.258 | 0.341 | 0.948
15 | NCI-H1755 | 0.772 | 0.77 | 0.774 | 0.56 | 0.481 | 0.409 | 0.202 | 0.849 | 0.692 | 0.222 | 0.457 | 0.349 | 0.38 | 0.406 | 0.87 | 0.813 | 0.938 | 0.692 | 0.225 | 0.827
16 | NCI-H647 | 0.553 | 0.347 | 0.235 | 0.148 | 0.492 | 0.204 | 0.0838 | 1.1 | 0.39 | 0.0391 | 0.539 | 0.253 | 0.0623 | 0.0307 | 0.547 | 0.357 | 0.128 | 0.0704 | 0.168 | 0.813
17 | HCC-15 | 0.351 | 0.42 | 0.345 | 0.158 | 0.719 | 0.523 | 0.289 | 0.753 | 0.556 | 0.259 | 1.15 | 1.3 | 1.13 | 0.632 | 0.646 | 0.631 | 0.536 | 0.217 | 0.522 | 0.667
18 | NCI-H2126 | 0.554 | 0.555 | 0.497 | 0.557 | 0.501 | 0.494 | 0.495 | 1.02 | 1.03 | 1.02 | 1.02 | 0.972 | 0.95 | 0.929 | 0.913 | 0.886 | 0.887 | 0.777 | 0.462 | 1.05
19 | NCI-H2085 | 0.608 | 0.434 | 0.207 | 0.174 | 0.419 | 0.433 | 0.322 | 0.881 | 0.339 | 0.226 | 1.04 | 0.875 | 0.394 | 0.25 | 0.874 | 0.669 | 0.497 | 0.282 | 0.444 | 0.495
20 | BEN | 0.915 | 0.65 | 0.749 | 0.395 | 0.549 | 0.3 | 0.188 | 0.803 | 0.304 | 0.214 | 0.654 | 0.54 | 0.38 | 0.294 | 0.828 | 0.68 | 0.656 | 0.362 | 0.292 | 0.397
21 | NCI-H650 | 1.02 | 0.709 | 0.265 | 0.191 | 0.875 | 0.276 | 0.256 | 0.666 | 0.254 | 0.256 | 1.23 | 0.848 | 0.387 | 0.23 | 0.426 | 0.319 | 0.204 | 0.241 | 0.361 | 0.264
22 | LCLC-103H | 0.637 | 0.671 | 0.686 | 0.683 | 0.628 | 0.736 | 0.457 | 0.948 | 0.993 | 1.02 | 0.817 | 0.639 | 0.863 | 0.692 | 0.724 | 0.737 | 0.815 | 0.639 | 0.471 | 0.937
23 | PC-14 | 0.206 | 0.0608 | 0.0204 | 0.0164 | 0.417 | 0.05 | 0.0156 | 0.918 | 0.203 | 0.0548 | 0.488 | 0.107 | 0.055 | 0.0324 | 0.287 | 0.0846 | 0.0176 | 0.0205 | 0.0984 | 0.526
24 | NCI-H1915 | 0.301 | 0.242 | 0.305 | 0.118 | 0.924 | 0.916 | 0.821 | 0.888 | 0.895 | 0.759 | 0.716 | 0.663 | 0.659 | 0.368 | 0.256 | 0.243 | 0.231 | 0.169 | – | –
